# Source: ChEMBL document CHEMBL3400045, “Synthesis and ABCG2 inhibitory evaluation of 5-N-acetylardeemin derivatives” (Bioorg Med Chem, 2015)
# What was measured:
# Format in all cases: cell-based
# ABCG2 [1] = biological target: T1, ABCG2 (Homo sapiens, UniProt Q9UNQ0); test: Inhibition of ABCG2 (unknown origin) transfected in Flp-In-293 cells assessed as inhibition of Hoechst 33342 efflux measured as inhibition ratio after 90 mins by flow cytometry; parameters: concentration or dose not given beside the values; conditions: Flp-In-293 cells transfected with ABCG2, probe Hoechst 33342
# T1 sequence (Q9UNQ0 whole entry): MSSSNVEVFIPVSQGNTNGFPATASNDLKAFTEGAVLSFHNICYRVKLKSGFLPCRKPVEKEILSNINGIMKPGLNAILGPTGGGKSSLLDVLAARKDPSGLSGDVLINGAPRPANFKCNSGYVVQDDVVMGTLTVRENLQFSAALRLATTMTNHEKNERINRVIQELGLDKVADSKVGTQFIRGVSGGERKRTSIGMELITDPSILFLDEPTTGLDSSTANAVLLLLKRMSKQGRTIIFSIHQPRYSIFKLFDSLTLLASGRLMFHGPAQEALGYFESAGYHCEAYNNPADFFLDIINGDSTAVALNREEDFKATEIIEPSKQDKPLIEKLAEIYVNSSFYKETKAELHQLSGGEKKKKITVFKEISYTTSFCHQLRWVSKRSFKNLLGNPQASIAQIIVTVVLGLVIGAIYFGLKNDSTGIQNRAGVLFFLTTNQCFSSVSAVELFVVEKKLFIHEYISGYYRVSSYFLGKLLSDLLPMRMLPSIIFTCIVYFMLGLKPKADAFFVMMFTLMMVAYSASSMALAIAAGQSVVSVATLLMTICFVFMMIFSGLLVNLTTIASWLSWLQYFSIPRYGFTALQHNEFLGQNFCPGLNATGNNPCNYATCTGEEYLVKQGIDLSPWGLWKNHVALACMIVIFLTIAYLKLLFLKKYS
# [2] = biological target: T2, Broad substrate specificity ATP-binding cassette transporter ABCG2 (Homo sapiens, UniProt Q9UNQ0); test: (§1) Inhibition of ABCG2 (unknown origin) transfected in Flp-In-293 cells assessed as inhibition of Hoechst 33342 efflux after 90 mins by flow cytometry; conditions: 1.5 h
# T2 sequence (Q9UNQ0 whole entry): T1 sequence (Q9UNQ0 whole entry)
# ABCG2 [3] = biological target: T1, ABCG2; test: as §1; conditions: Flp-In-293 cells transfected with ABCG2, probe Hoechst 33342
inhibition at 1.5 h (ABCG2 [1]),inhibition (INH) [2],inhibition at 1.5 h (ABCG2 [3]),Structure (SMILES)
,Active,,C=CC(C)(C)[C@@]12C[C@H]3c4nc5ccccc5c(=O)n4[C@H](C)C(=O)N3[C@@H]1N(C(C)=O)c1ccc(-c3ccccc3)cc12
,Active,,C=CC(C)(C)[C@@]12C[C@H]3c4nc5ccccc5c(=O)n4[C@H](C)C(=O)N3[C@@H]1N(C(C)=O)c1ccc(-c3ccc(C)cc3)cc12
,Active,,C=CC(C)(C)[C@@]12C[C@H]3c4nc5ccccc5c(=O)n4[C@H](C)C(=O)N3[C@@H]1N(C(C)=O)c1ccc(-c3ccc(OC)cc3)cc12
,Active,,C=CC(C)(C)[C@@]12C[C@H]3c4nc5ccccc5c(=O)n4[C@H](C)C(=O)N3[C@@H]1N(C(C)=O)c1ccc(-c3ccc(C#N)cc3)cc12
,Active,,C=CC(C)(C)[C@@]12C[C@H]3c4nc5ccccc5c(=O)n4[C@H](C)C(=O)N3[C@@H]1N(C(C)=O)c1ccc(-c3ccc(-c4ccccc4)cc3)cc12

# The remaining lines, values behind:
Structure (SMILES),inhibition at 1.5 h (ABCG2 [1]),inhibition (INH) [2],inhibition at 1.5 h (ABCG2 [3])
C=CC(C)(C)[C@@]12C[C@H]3c4nc5ccccc5c(=O)n4[C@H](C)C(=O)N3[C@@H]1N(C(C)=O)c1ccccc12,21.8%,,
C=CC(C)(C)[C@@]12C[C@H]3c4nc5ccc(F)cc5c(=O)n4[C@H](C)C(=O)N3[C@@H]1N(C(C)=O)c1ccccc12,34.6%,Active,
C=CC(C)(C)[C@@]12C[C@H]3c4nc5ccc(Cl)cc5c(=O)n4[C@H](C)C(=O)N3[C@@H]1N(C(C)=O)c1ccccc12,66.8%,Active,
C=CC(C)(C)[C@@]12C[C@H]3c4nc5ccc(Br)cc5c(=O)n4[C@H](C)C(=O)N3[C@@H]1N(C(C)=O)c1ccccc12,64.5%,Active,
C=CC(C)(C)[C@@]12C[C@H]3c4nc5cc(Br)ccc5c(=O)n4[C@H](C)C(=O)N3[C@@H]1N(C(C)=O)c1ccccc12,,Active,
C=CC(C)(C)[C@@]12C[C@H]3c4nc5ccc(I)cc5c(=O)n4[C@H](C)C(=O)N3[C@@H]1N(C(C)=O)c1ccccc12,35.4%,Active,
C=CC(C)(C)[C@@]12C[C@H]3c4nc5ccc(OC)cc5c(=O)n4[C@H](C)C(=O)N3[C@@H]1N(C(C)=O)c1ccccc12,,Active,
C=CC(C)(C)[C@@]12C[C@H]3c4nc5ccc(C#N)cc5c(=O)n4[C@H](C)C(=O)N3[C@@H]1N(C(C)=O)c1ccccc12,,Active,
C=CC(C)(C)[C@@]12C[C@H]3c4nc5ccc(-c6ccccc6)cc5c(=O)n4[C@H](C)C(=O)N3[C@@H]1N(C(C)=O)c1ccccc12,,Active,
C=CC(C)(C)[C@@]12C[C@H]3c4nc5ccccc5c(=O)n4[C@H](C)C(=O)N3[C@@H]1N(C(C)=O)c1ccc(Br)cc12,,Active,
C=CC(C)(C)[C@@]12C[C@H]3c4nc5ccccc5c(=O)n4[C@H](C)C(=O)N3[C@@H]1N(C(C)=O)c1ccc(C3CCCCC3)cc12,,Active,
C=CC(C)(C)[C@]12C[C@@H](C(=O)Nc3ccccc3C(=O)OC)N(C(=O)[C@@H](C)NC(=O)OC(C)(C)C)[C@H]1N(C(C)=O)c1ccccc12,,,27.5%
